# Results reported in patent US20210284647A1, “N-(3-(IMIDAZO[1,2-B]PYRIDAZIN-3-YLETHYNYL)-4-METHYLPHENYL)-5-PHENYL-4,5-DIHYDRO-1H-PYRAZOLE-1-CARBOXAMIDE DERIVATIVE, AND PHARMACEUTICAL COMPOSITION CONTAINING SAME AS ACTIVE INGREDIENT FOR TREATING KINASE-RELATED DISEASES” (VORONOIBIO INC., priority 2018, published 2021).
# pEC50, pIC50: −log10 of the molar value. Counter-ions that a name gives are not always drawn.
# Key:
# [1] = target: T1, human GST-RIPK1 (Homo sapiens, UniProt Q13546); test: RIPK1 inhibitory activity (ADP-Glo kinase assay); type: biochemical; settings: human GST-RIPK1 10 ng, ATP 50 uM, 25° C. for 4 hours, read-out: Enzyme IC50
# T1 construct: GST; purchased signalchem
# T1 sequence (Q13546 1-375 limits assumed): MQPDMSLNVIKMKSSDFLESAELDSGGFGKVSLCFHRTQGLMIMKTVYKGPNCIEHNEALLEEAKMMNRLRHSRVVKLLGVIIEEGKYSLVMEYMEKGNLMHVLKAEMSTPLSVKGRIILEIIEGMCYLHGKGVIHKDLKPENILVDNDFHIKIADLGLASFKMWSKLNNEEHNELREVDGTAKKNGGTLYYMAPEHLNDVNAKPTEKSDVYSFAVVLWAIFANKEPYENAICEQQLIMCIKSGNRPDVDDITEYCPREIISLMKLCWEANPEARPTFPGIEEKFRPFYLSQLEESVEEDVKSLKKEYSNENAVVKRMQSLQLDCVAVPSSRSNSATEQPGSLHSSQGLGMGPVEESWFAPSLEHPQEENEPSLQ
# Method: The following experiment was performed to evaluate the inhibitory activity of the example compounds according to the present invention against RIPK1 (receptor-interacting serine/threonine protein kinase 1).
# The example compound was reacted with the purified human GST-RIPK1 (1375, signalchem) enzyme to evaluate the enzyme inhibitory activity in the following manner. The composition of the reaction buffer used herein was as follows: 40 mM Tris-Hcl pH 7.4, 20 mM MgCl2, 0.5 mg/ml, BSA and 0.5 uM DTT. All the test materials were reacted in the reaction buffer. After reacting human GST-RIPK1 (1375, 10 ng), purified ATP (50 uM) and a specific substrate solution at 25° C. for 4 hours, the enzyme activity was confirmed using an in vitro ADP-Glo™ kinase assay (promega). Luminoscence was measured by reacting the enzyme activity reaction solution, ADP-Glo reaction solution, and enzyme activity detection solution at the ratio of 2:2:1. The degree of enzyme activity inhibition according to the treatment concentration of each compound was calculated based on the fluorescence of the enzyme activity of the solvent control not treated with the compound. At this time, the concentration of each compound inhibiting 50% of the enzyme activity was determined as IC50 (nM). IC50 of each compound was determined with three data sets and calculated using Prism (version 7.01, GraphPad) software.
# [2] = tested on: human Jurkat T cells deficient in FADD; test: Cell protection effect under apoptosis-inducing condition (TNF-α); type: cell-based; settings: 40 ng of TNF-α, 50 hours, CellTiter-Glo, read-out: I2.I Cell EC50
# Method: The cell protection effect of the compounds according to the present invention under the condition of inducing apoptosis by TNF-α was confirmed by […]. An apoptosis inducing factor such as TNF-α was treated to induce apoptosis of human Jurkat T cells deficient in FADD, to which the example compound was treated, and the cell protection effect was confirmed through the following analysis. Jurkat T cells deficient in FADD were cultured using RPMI medium (Hyclone) containing 10% FBS. When performing the test, the cells were seeded in a 96-well plate containing a medium suitable for the cell line at the density of 10,000 cells/well, and cultured in a 37° C. 5% CO2 incubator for 24 hours. Then, each well was treated with 40 ng of TNF-α, and the compounds prepared in the above examples were each treated with a 3-fold concentration gradient with 1 μM as the highest concentration. As the solvent control, dimethyl sulfoxide (DMSO) was treated at the concentration of 0.05% (v/v), which was the same concentration as that used for the compound treatment. Then, the cells were cultured for 50 hours. To confirm the degree of viability of the cells, a mixture provided in CellTiter-Gloe Luminescent Cell Viability Assay Kit (Promega) was added to the culture medium of the cells, followed by further culture at 37° C. for 30 minutes. Then, luminescence fluorescence was measured. The degree of inhibition of apoptosis induction according to the treatment concentration of each compound was calculated based on the fluorescence of the solvent control cells not treated with the compound. At this time, the concentration of each compound inhibiting 50% was determined as EC50 (μM). EC50 of each compound was calculated using Prism (version 7.01, GraphPad) software.
Compound,pIC50 [1],pEC50 [2]
"O=C(Nc1cccc(C#Cc2cnc3cccnn23)c1)N1N=CC[C@@H]1c1ccccc1 [Example 21, (R)—N-(3-(imidazo[1,2-b]pyridazin-3-ylethynyl)phenyl)-5-phenyl-4,5-dihydro-1H-pyrazole-1-carboxamide hydrochloride]",< 6.00,6.23
"O=C(Nc1ccc(C#Cc2cnc3cccnn23)cc1)N1N=CCC1c1ccccc1 (centres unmarked) [Example 22, N-(4-(imidazo[1,2-b]pyridazin-3-ylethynyl)phenyl)-5-phenyl-4,5-dihydro-1H-pyrazole-1-carboxamide 2,2,2-trifluoroacetate]",< 6.00,< 6.00
"O=C(Nc1cccc(C#Cc2cnc3cccnn23)c1)N1N=CCC1c1cc(F)cc(F)c1 (centres unmarked) [Example 23, 5-(3,5-difluorophenyl)-N-(3-(imidazo[1,2-b]pyridazin-3-ylethynyl)phenyl)-4,5-dihydro-1H-pyrazole-1-carboxamide 2,2,2-trifluoroacetate]",7.49,8.92
"O=C(Nc1cccc(C#Cc2cnc3cccnn23)c1)N1N=CC[C@H]1c1cc(F)cc(F)c1 [Example 24, (S)-5-(3,5-difluorophenyl)-N-(3-(imidazo[1,2-b]pyridazin-3-ylethynyl)phenyl)-4,5-dihydro-1H-pyrazole-1-carboxamide 2,2,2-trifluoroacetate]",8.56,9.36
"O=C(Nc1cccc(C#Cc2cnc3cccnn23)c1)N1N=CC[C@@H]1c1cc(F)cc(F)c1 [Example 25, (R)-5-(3,5-difluorophenyl)-N-(3-(imidazo[1,2-b]pyridazin-3-ylethynyl)phenyl)-4,5-dihydro-1H-pyrazole-1-carboxamide 2,2,2-trifluoroacetate]",6.06,6.44
"O=C(Nc1cccc(C#Cc2cnc3cccnn23)c1)N1N=CCC1c1ccc(C(F)(F)F)cc1 (centres unmarked) [Example 26, N-(3-(imidazo[1,2-b]pyridazin-3-ylethynyl)phenyl)-5-(4-(trifluoromethyl)phenyl)-4,5-dihydro-1H-pyrazole-1-carboxamide 2,2,2-trifluoroacetate]",8.16,6.70
"COc1ccc(C2CC=NN2C(=O)Nc2cccc(C#Cc3cnc4cccnn34)c2)cc1 (centres unmarked) [Example 27, N-(3-(imidazo[1,2-b]pyridazin-3-ylethynyl)phenyl)-5-(4-methoxyphenyl)-4,5-dihydro-1H-pyrazole-1-carboxamide 2,2,2-trifluoroacetate]",8.63,7.26
"O=C(Nc1cccc(C#Cc2cnc3cccnn23)c1)N1N=CCC1c1cccc(F)c1 (centres unmarked) [Example 28, 5-(3-fluorophenyl)-N-(3-(imidazo[1,2-b]pyridazin-3-ylethynyl)phenyl)-4,5-dihydro-1H-pyrazole-1-carboxamide 2,2,2-trifluoroacetate]",8.00,9.10
"O=C(Nc1cccc(C#Cc2cnc3cccnn23)c1)N1N=CC[C@H]1c1cccc(F)c1 [Example 29, (S)-5-(3-fluorophenyl)-N-(3-(imidazo[1,2-b]pyridazin-3-ylethynyl)phenyl)-4,5-dihydro-1H-pyrazole-1-carboxamide 2,2,2-trifluoroacetate]",8.23,9.52
"O=C(Nc1cccc(C#Cc2cnc3cccnn23)c1)N1N=CC[C@@H]1c1cccc(F)c1 [Example 30, (R)-5-(3-fluorophenyl)-N-(3-(imidazo[1,2-b]pyridazin-3-ylethynyl)phenyl)-4,5-dihydro-1H-pyrazole-1-carboxamide 2,2,2-trifluoroacetate]",6.40,6.49
"O=C(Nc1cccc(C#Cc2cnc3cccnn23)c1)N1N=CCC1c1ccc(F)cc1 (centres unmarked) [Example 31, 5-(4-fluorophenyl)-N-(3-(imidazo[1,2-b]pyridazin-3-ylethynyl)phenyl)-4,5-dihydro-1H-pyrazole-1-carboxamide 2,2,2-trifluoroacetate]",7.99,8.84
"O=C(Nc1cccc(C#Cc2cnc3cccnn23)c1)N1N=CC[C@H]1c1ccc(F)cc1 [Example 32, (S)-5-(4-fluorophenyl)-N-(3-(imidazo[1,2-b]pyridazin-3-ylethynyl)phenyl)-4,5-dihydro-1H-pyrazole-1-carboxamide 2,2,2-trifluoroacetate]",8.32,9.20
"O=C(Nc1cccc(C#Cc2cnc3cccnn23)c1)N1N=CC[C@@H]1c1ccc(F)cc1 [Example 33, (R)-5-(4-fluorophenyl)-N-(3-(imidazo[1,2-b]pyridazin-3-ylethynyl)phenyl)-4,5-dihydro-1H-pyrazole-1-carboxamide 2,2,2-trifluoroacetate]",< 6.00,7.49
"O=C(Nc1cccc(C#Cc2cnc3cccnn23)c1)N1N=CCC1c1cccc(Cl)c1 (centres unmarked) [Example 34, 5-(3-chlorophenyl)-N-(3-(imidazo[1,2-b]pyridazin-3-ylethynyl)phenyl)-4,5-dihydro-1H-pyrazole-1-carboxamide 2,2,2-trifluoroacetate]",7.72,7.37
"O=C(Nc1cccc(C#Cc2cnc3cccnn23)c1)N1N=CCC1c1ccc(Cl)cc1 (centres unmarked) [Example 35, 5-(4-chlorophenyl)-N-(3-(imidazo[1,2-b]pyridazin-3-ylethynyl)phenyl)-4,5-dihydro-1H-pyrazole-1-carboxamide 2,2,2-trifluoroacetate]",7.21,8.41
"O=C(Nc1cccc(C#Cc2cnc3cccnn23)c1)N1N=CCC1c1cccnc1 (centres unmarked) [Example 36, N-(3-(imidazo[1,2-b]pyridazin-3-ylethynyl)phenyl)-5-(pyridin-3-yl)-4,5-dihydro-1H-pyrazole-1-carboxamide 2,2,2-trifluoroacetate]",8.53,7.92
"O=C(Nc1cccc(C#Cc2cnc3cccnn23)c1)N1N=CCC1c1ccccn1 (centres unmarked) [Example 37, N-(3-(imidazo[1,2-b]pyridazin-3-ylethynyl)phenyl)-5-(pyridin-2-yl)-4,5-dihydro-1H-pyrazole-1-carboxamide 2,2,2-trifluoroacetate]",8.91,8.74
"O=C(Nc1cccc(C#Cc2cnc3cccnn23)c1)N1N=CCC1c1ccncc1 (centres unmarked) [Example 38, N-(3-(imidazo[1,2-b]pyridazin-3-ylethynyl)phenyl)-5-(pyridin-4-yl)-4,5-dihydro-1H-pyrazole-1-carboxamide hydrochloride]",8.96,6.97
"O=C(Nc1cccc(C#Cc2cnc3cccnn23)c1)N1N=CCC1c1ccc2c(c1)OCO2 (centres unmarked) [Example 39, 5-(benzo[d][1,3]dioxol-5-yl)-N-(3-(imidazo[1,2-b]pyridazin-3-ylethynyl)phenyl)-4,5-dihydro-1H-pyrazole-1-carboxamide 2,2,2-trifluoroacetate]",8.31,8.55
"O=C(Nc1cccc(C#Cc2cnc3cccnn23)c1)N1N=CCC1c1ccc2ccccc2c1 (centres unmarked) [Example 40, N-(3-(imidazo[1,2-b]pyridazin-3-ylethynyl)phenyl)-5-(naphthalen-2-yl)-4,5-dihydro-1H-pyrazole-1-carboxamide]",7.72,7.91
"O=C(Nc1cccc(C#Cc2cnc3cccnn23)c1)N1N=CCC1c1cc2ccccc2cn1 (centres unmarked) [Example 41, N-(3-(imidazo[1,2-b]pyridazin-3-ylethynyl)phenyl)-5-(isoquinolin-3-yl)-4,5-dihydro-1H-pyrazole-1-carboxamide]",7.48,7.19
"O=C(Nc1cccc(C#Cc2cnc3cccnn23)c1)N1N=CCC1C1CCCCC1 (centres unmarked) [Example 42, 5-cyclohexyl-N-(3-(imidazo[1,2-b]pyridazin-3-ylethynyl)phenyl)-4,5-dihydro-1H-pyrazole-1-carboxamide]",7.90,8.82
